Experiments:
[1] = biological target: D(1A) dopamine receptor (Homo sapiens, UniProt P21728); assay: Antagonist activity at dopamine D1 receptor; format: functional
[2] = biological target: D(2) dopamine receptor (Homo sapiens, UniProt P14416); assay: Antagonist activity at dopamine D2 receptor; format: functional
Chain of D(2) dopamine receptor (P14416 whole entry): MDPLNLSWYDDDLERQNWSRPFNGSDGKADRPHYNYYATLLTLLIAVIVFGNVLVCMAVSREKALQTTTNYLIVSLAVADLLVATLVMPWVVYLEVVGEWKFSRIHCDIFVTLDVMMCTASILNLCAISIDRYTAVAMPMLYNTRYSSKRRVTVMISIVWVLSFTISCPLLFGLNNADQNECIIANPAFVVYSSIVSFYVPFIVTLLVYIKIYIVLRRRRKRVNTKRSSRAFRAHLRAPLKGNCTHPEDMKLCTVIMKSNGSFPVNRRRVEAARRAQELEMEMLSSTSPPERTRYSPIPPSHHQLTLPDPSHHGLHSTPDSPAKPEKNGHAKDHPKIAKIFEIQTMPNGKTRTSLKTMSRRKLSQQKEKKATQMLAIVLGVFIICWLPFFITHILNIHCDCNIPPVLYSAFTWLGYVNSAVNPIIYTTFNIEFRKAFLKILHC

Chain of D(1A) dopamine receptor (P21728 whole entry): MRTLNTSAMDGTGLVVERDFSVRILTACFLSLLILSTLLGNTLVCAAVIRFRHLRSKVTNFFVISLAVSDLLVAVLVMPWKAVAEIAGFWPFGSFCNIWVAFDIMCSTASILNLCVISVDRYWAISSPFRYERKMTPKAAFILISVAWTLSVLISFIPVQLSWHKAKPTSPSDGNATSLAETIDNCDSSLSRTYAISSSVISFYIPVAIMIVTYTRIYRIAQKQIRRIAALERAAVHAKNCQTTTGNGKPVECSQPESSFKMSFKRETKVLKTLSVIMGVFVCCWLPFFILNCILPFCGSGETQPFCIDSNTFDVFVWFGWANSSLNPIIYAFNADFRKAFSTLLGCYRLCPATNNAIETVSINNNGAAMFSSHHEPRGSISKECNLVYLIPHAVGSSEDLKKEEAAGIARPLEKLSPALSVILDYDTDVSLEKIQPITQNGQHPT

EC50 [1] [nM] | EC50 [2] [µM] | Compound
5.6 | 56 | COc1cc2c(cc1O)CN1CCc3cc(OC)c(O)cc3[C@@H]1C2
> 100000 | 14 | COc1cc2c(cc1O)CN1CCc3cc(OC)c(O)cc3[C@H]1C2

— ChEMBL document CHEMBL1949652, “First enantioselective syntheses of the dopamine D1 and D2 receptor modulators, (+)- and (-)-govadine” (Bioorg Med Chem Lett, 2012)
